One data set deals with Phytophthora infestans. The format is in vivo. As to conditions: tomato plants, spray, 500 ppm, grading 5 days after contamination.
For data set [1] the following is noted: pH 2.7.

Marks after values point to notes of the source that are not given here.

Results on 53 compounds are retold here after patent US9090600B2, “Fungicidal 4-substituted-3-{phenyl[(heterocyclylmethoxy)imino]methyl}-1,2,4-oxadizol-5(4H)-one derivatives” (BAYER INTELLECTUAL PROPERTY GMBH, priority 2011, dated 2015).

Broadly, the LogP is a log measure of how a compound divides between an organic and an aqueous phase.

For the compound `Cn1c(/C(=N\OCc2csc(NC(=O)c3ccccc3Br)n2)c2ccccc2)noc1=O` [Example 81], the Eff. % with Phytophthora infestans amounted to 78%. For the same compound, the log partition coefficient (LogP) in data set [1] was 3.51 [a].

Turning to `Cc1ccccc1OC(C)C(=O)Nc1nc(CO/N=C(/c2ccccc2)c2noc(=O)n2C)cs1` (stereo not shown) [Example 82], in the data set with Phytophthora infestans, the Eff. % came to 99%. In data set [1], the LogP is 4.12 [a].

For `Cc1cccc(/C(=N/OCc2cccc(N(C(=O)OC(C)(C)C)C(=O)OC(C)(C)C)n2)c2noc(=O)n2C)c1` [Example 87], the Eff. % with Phytophthora infestans amounted to 95%. In data set [1], the LogP was 4.77 [a].

`Cn1c(/C(=N\OCc2cccc(NC(=O)OCCc3ccc(F)cc3)n2)c2ccccc2)noc1=O` [Example 89] displayed an Eff. % with Phytophthora infestans of 99%. Besides, the LogP in data set [1] was 4.19 [a].

On to `COc1ccccc1C(=O)Nc1nc(CO/N=C(/c2ccccc2)c2noc(=O)n2C)cs1` [Example 91], for which, in the data set on Phytophthora infestans, the Eff. % is 85%. For the same compound, the LogP in data set [1] was 3.71 [a].

`CCCCOC(C)C(=O)Nc1cccc(CO/N=C(/c2ccccc2)c2noc(=O)n2C)n1` (stereo not shown) [Example 93]: in the data set on Phytophthora infestans, the Eff. % came out at 99%. The LogP in data set [1] was 4.3 [a].

Regarding `CCCCCCCCC(=O)Nc1cccc(CO/N=C(/c2ccccc2)c2noc(=O)n2C)n1` [Example 98], the Eff. % with Phytophthora infestans amounted to 99%. The LogP in data set [1] was 5.11 [a].

Turning to `COc1ccc(CC(=O)Nc2cccc(CO/N=C(/c3cccc(OC)c3)c3noc(=O)n3C)n2)cc1` [Example 101], the Eff. % in the data set on Phytophthora infestans is 97%. The LogP in data set [1] was 3.51 [a].

As for `Cn1c(/C(=N\OCc2csc(NC(=O)OC3CCCC3)n2)c2ccccc2)noc1=O` [Example 103], in the data set with Phytophthora infestans, the Eff. % came to 80%. The LogP in data set [1] was 3.76 [a].

Regarding `Cn1c(/C(=N\OCc2cccc(NC(=O)OCCc3ccccc3Cl)n2)c2ccccc2)noc1=O` [Example 106], the Eff. % in the data set on Phytophthora infestans is recorded as 75%. Further, the LogP in data set [1] was 4.56 [a].

Take `CCCCCCOC(=O)Nc1cccc(CO/N=C(/c2ccccc2)c2noc(=O)n2C)n1` [Example 107]: the Eff. % in the data set on Phytophthora infestans was 100%. Also, in data set [1], the LogP is 4.85 [a].

In the data set with Phytophthora infestans, `Cn1c(/C(=N\OCc2cccc(NC(=O)OC3CCCC3)n2)c2ccccc2)noc1=O` [Example 110] showed an Eff. % of 98%. The LogP in data set [1] is 4.09 [a].

In the case of `COc1cccc(/C(=N/OCc2cccc(NC(=O)OC3CCCCC3)n2)c2noc(=O)n2C)c1` [Example 112], in the data set on Phytophthora infestans, the Eff. % is recorded as 73%. Also, the LogP in data set [1] is 4.49 [a].

Compound `Cn1c(/C(=N\OCc2cccc(NC(=O)c3ccccc3F)n2)c2ccccc2)noc1=O` [Example 114] had an Eff. % in the data set with Phytophthora infestans of 100%. Also, the LogP in data set [1] was 3.73 [a].

`Cn1c(/C(=N\OCc2cccc(NC(=O)C3CCC3)n2)c2ccccc2)noc1=O` [Example 118] gave an Eff. % in the data set on Phytophthora infestans of 100%. Further, the LogP in data set [1] is 3.27 [a].

Compound `COC(=O)C(C)OC(=O)Nc1cccc(CO/N=C(/c2ccccc2)c2noc(=O)n2C)n1` (stereo not shown) [Example 119] came in with an Eff. % in the data set with Phytophthora infestans of 97%. For the same compound, the LogP in data set [1] is 3.17 [a].

Consider `Cn1c(/C(=N\OCc2csc(NC(=O)COc3ccc(Cl)cc3Cl)n2)c2ccccc2)noc1=O` [Example 123], for which the Eff. % in the data set on Phytophthora infestans was found to be 98%. Also, the LogP in data set [1] is 4.23 [a].

`C#CCC(C)OC(=O)Nc1cccc(CO/N=C(/c2ccccc2)c2noc(=O)n2CC)n1` (stereo not shown) [Example 127]: the Eff. % in the data set with Phytophthora infestans amounted to 100%. In addition, in data set [1], the LogP is 3.81 [a].

For the compound `CCC(C)C(=O)Nc1cccc(CO/N=C(/c2ccccc2)c2noc(=O)n2C)n1` (stereo not shown) [Example 132], the Eff. % in the data set with Phytophthora infestans was found to be 97%. Besides, in data set [1], the LogP was 3.41 [a].

In the data set on Phytophthora infestans, `Cc1ccccc1CCOC(=O)Nc1cccc(CO/N=C(/c2ccccc2)c2noc(=O)n2C)n1` [Example 133] registered an Eff. % of 88%. Moreover, the LogP in data set [1] is 4.51 [a].

As to `Cn1c(/C(=N\OCc2cccc(NC(=O)c3ccco3)n2)c2ccccc2)noc1=O` [Example 134], in the data set on Phytophthora infestans, the Eff. % is 99%. Moreover, in data set [1], the LogP is 3.13 [a].

In the data set with Phytophthora infestans, `Cn1c(/C(=N\OCc2cccc(NC(=O)C3(C)CC3)n2)c2ccccc2)noc1=O` [Example 137] displayed an Eff. % of 98%. The LogP in data set [1] is 3.31 [a].

Regarding `Cn1c(/C(=N\OCc2cccc(NC(=O)Oc3ccccc3)n2)c2ccccc2)noc1=O` [Example 138], the Eff. % with Phytophthora infestans was 97%. In data set [1], the LogP was 3.73 [a].

The compound `Cn1c(/C(=N\OCc2cccc(NC(=O)C(C)(C)C)n2)c2cccc(F)c2)noc1=O` [Example 139] registered an Eff. % in the data set on Phytophthora infestans of 100%. Also, in data set [1], the LogP was 3.61 [a].

`Cc1cccc(/C(=N/OCc2cccc(NC(=O)OC(C)(C)C)n2)c2noc(=O)n2C)c1` [Example 142] gave an Eff. % with Phytophthora infestans of 100%. In addition, the LogP in data set [1] was 4.34 [a].

Take `Cn1c(/C(=N\OCc2csc(NC(=O)c3cccc(I)c3)n2)c2ccccc2)noc1=O` [Example 143]: the Eff. % with Phytophthora infestans is listed as 75%. Besides, the LogP in data set [1] is 4.19 [a].

In the data set with Phytophthora infestans, `Cc1ccc(C(=O)Nc2cccc(CO/N=C(/c3ccccc3)c3noc(=O)n3C)n2)cc1` [Example 144] gave an Eff. % of 95%. Also, the LogP in data set [1] was 3.85 [a].

With `CC(COC(=O)Nc1cccc(CO/N=C(/c2ccccc2)c2noc(=O)n2C)n1)c1ccccc1` (stereo not shown) [Example 145], in the data set with Phytophthora infestans, the Eff. % is 83%. In data set [1], the LogP was 4.46 [a].

For the compound `Cn1c(/C(=N\OCc2cccc(NC(=O)CC34CC5CC(CC(C5)C3)C4)n2)c2ccccc2)noc1=O` [Example 146], in the data set with Phytophthora infestans, the Eff. % was 93%. The LogP in data set [1] was 5.08 [a].

In the data set with Phytophthora infestans, `Cn1c(/C(=N\OCc2cccc(NC(=O)C3CCCCC3)n2)c2ccccc2)noc1=O` [Example 147] yielded an Eff. % of 100%. In data set [1], the LogP was 3.92 [a].

In the data set with Phytophthora infestans, `CC(C)=CCC(=O)Nc1cccc(CO/N=C(/c2ccccc2)c2noc(=O)n2C)n1` [Example 153] yielded an Eff. % of 100%. Besides, in data set [1], the LogP was 3.59 [a].

The compound `CC(Oc1cccc(Br)c1)C(=O)Nc1nc(CO/N=C(/c2ccccc2)c2noc(=O)n2C)cs1` (stereo not shown) [Example 155] showed an Eff. % in the data set with Phytophthora infestans of 92%. In data set [1], the LogP was 4.17 [a].

In the data set on Phytophthora infestans, `CCCCCOC(=O)Nc1cccc(CO/N=C(/c2ccc(F)cc2)c2noc(=O)n2C)n1` [Example 161] displayed an Eff. % of 92%. The LogP in data set [1] was 4.51 [a].

In the data set with Phytophthora infestans, `Cn1c(/C(=N\OCc2cccc(NC(=O)C3(c4ccccc4)CC3)n2)c2ccccc2)noc1=O` [Example 165] gave an Eff. % of 70%. Besides, in data set [1], the LogP is 4.43 [a].

In the data set with Phytophthora infestans, `Cc1ccoc1C(=O)Nc1cccc(CO/N=C(/c2ccccc2)c2noc(=O)n2C)n1` [Example 170] gave an Eff. % of 100%. For the same compound, in data set [1], the LogP is 3.71 [a].

Regarding `COc1ccccc1CCOC(=O)Nc1cccc(CO/N=C(/c2ccccc2)c2noc(=O)n2C)n1` [Example 175], the Eff. % in the data set with Phytophthora infestans came out at 93%. Besides, in data set [1], the LogP is 4.31 [a].

For `CCCCC(=O)Nc1cccc(CO/N=C(/c2ccccc2)c2noc(=O)n2CC)n1` [Example 176], the Eff. % with Phytophthora infestans is on record as 100%. For the same compound, the LogP in data set [1] is 3.76 [a].

The compound `CC(C)C(=O)Nc1cccc(CO/N=C(/c2ccccc2)c2noc(=O)n2C)n1` [Example 177] came in with an Eff. % in the data set on Phytophthora infestans of 100%. Besides, the LogP in data set [1] was 3.11 [a].

In the data set with Phytophthora infestans, `Cn1c(/C(=N\OCc2cccc(NC(=O)c3ccccc3Cl)n2)c2ccccc2)noc1=O` [Example 178] displayed an Eff. % of 99%. The LogP in data set [1] was 3.64 [a].

The compound `CC(C)CCOC(=O)Nc1cccc(CO/N=C(/c2ccccc2)c2noc(=O)n2C)n1` [Example 182] yielded an Eff. % with Phytophthora infestans of 100%. Also, the LogP in data set [1] is 4.39 [a].

Compound `COc1ccccc1CCC(=O)Nc1cccc(CO/N=C(/c2ccccc2)c2noc(=O)n2C)n1` [Example 184] showed an Eff. % with Phytophthora infestans of 99%. The LogP in data set [1] is 3.87 [a].

Compound `Cn1c(/C(=N\OCc2cccc(NC(=O)OCCc3ccccc3F)n2)c2ccccc2)noc1=O` [Example 186] displayed an Eff. % with Phytophthora infestans of 83%. In addition, in data set [1], the LogP was 4.21 [a].

`Cn1c(/C(=N\OCc2cccc(NC(=O)c3ccc(Br)cc3)n2)c2ccccc2)noc1=O` [Example 187] had an Eff. % in the data set with Phytophthora infestans of 80%. The LogP in data set [1] is 4.14 [a].

Turning to `CSCCC(=O)Nc1cccc(CO/N=C(/c2ccccc2)c2noc(=O)n2C)n1` [Example 188], the Eff. % in the data set with Phytophthora infestans was found to be 99%. Further, the LogP in data set [1] was 3.09 [a].

With `CCC(CC)COC(=O)Nc1cccc(CO/N=C(/c2ccccc2)c2noc(=O)n2C)n1` [Example 192], the Eff. % in the data set on Phytophthora infestans amounted to 100%. The LogP in data set [1] was 4.78 [a].

For the compound `CCCCC(C)OC(=O)Nc1cccc(CO/N=C(/c2ccccc2)c2noc(=O)n2C)n1` (stereo not shown) [Example 200], the Eff. % with Phytophthora infestans was determined as 98%. Also, the LogP in data set [1] was 4.78 [a].

The compound `CCn1c(/C(=N\OCc2cccc(NC(=O)OCc3ccccc3)n2)c2ccccc2)noc1=O` [Example 201] yielded an Eff. % in the data set on Phytophthora infestans of 100%. The LogP in data set [1] is 4.24 [a].

On to `Cn1c(/C(=N\OCc2cccc(NC(=O)c3cc(F)cc(F)c3)n2)c2ccccc2)noc1=O` [Example 202], for which the Eff. % in the data set with Phytophthora infestans is 98%. In addition, the LogP in data set [1] was 3.92 [a].

Regarding `Cc1cccc(CCOC(=O)Nc2cccc(CO/N=C(/c3ccccc3)c3noc(=O)n3C)n2)c1` [Example 210], in the data set on Phytophthora infestans, the Eff. % amounted to 75%. The LogP in data set [1] was 4.53 [a].

Regarding `COC(C(=O)Nc1cccc(CO/N=C(/c2ccccc2)c2noc(=O)n2C)n1)c1ccccc1` (stereo not shown) [Example 218], the Eff. % in the data set with Phytophthora infestans was found to be 80%. The LogP in data set [1] is 3.85 [a].

Regarding `COc1ccccc1OC(C)C(=O)Nc1nc(CO/N=C(/c2ccccc2)c2noc(=O)n2C)cs1` (stereo not shown) [Example 219], the Eff. % in the data set on Phytophthora infestans is on record as 85%. Also, in data set [1], the LogP is 3.89 [a].

As to `CCC(C)(C)C(=O)Nc1cccc(CO/N=C(/c2ccccc2)c2noc(=O)n2C)n1` [Example 221], the Eff. % in the data set with Phytophthora infestans came to 100%. The LogP in data set [1] was 3.8 [a].

As for `CCCCCOC(=O)Nc1cccc(CO/N=C(/c2cccc(C)c2)c2noc(=O)n2C)n1` [Example 224], the Eff. % in the data set on Phytophthora infestans is 93%. For the same compound, the LogP in data set [1] is 4.78 [a].
